Values of other authors, collected in US11440912B2, “Process for the preparation of ribociclib and its salts” (FRESENIUS KABI ONCOLOGY LIMITED, priority 2017, dated 2022).

Details: at 80% RH

In the case of `CN(C)C(=O)c1cc2cnc(Nc3ccc(N4CCNCC4)cn3)nc2n1C1CCCC1.O=C(O)CCC(=O)O` [ribociclib succinate], the “ribociclib succinate converts to hydrated form from the non-hydrated form” value is given as 0.52%.
